In patent publication US9029384B2, “Phosphatidylinositol 3-kinase inhibitors” (Gilead Calistoga LLC, priority 2012, dated 2015):
Where two headings read alike, the source gives them in different places.

Columns and labels:
basophils = assay: Basophil activation in human whole blood (Flow2 CAST kit, CD63 positive cells); type: cell-based
How it was run: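 Human whole blood (K2-EDTA) preincubated 60 minutes at 37° C with compound serial dilutions or DMSO (0.3% final), then stimulated with anti-FcεRI mAb or fMLP and stained for CD63/CCR3. Percent CD63+ among ≥200 CCR3-high basophils by flow cytometry, normalized to stimulated vehicle as 100%. EC50 from four-parameter fits, geometric means in nM, concentrations corrected for reagent dilution.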

[1] = Hepatocyte stability, 0.01% final DMSO, 1 μM substrate (t1/2^b); type: in vitro ADME; conditions: human, hepatocytes, TA with 0.01% final DMSO
Description: Alternatively, assay reagents and/or conditions can be modified in determining the inhibitory activities to PI3K isomers. In additional studies, similar assay using TA and 0.01% final DMSO concentration were incubated with 1 million hepatocytes/mL at 1 μM substrate in duplicate. The incubation was carried out at 37° C. with 5% CO2 and saturating humidity.

[2] = Hepatocyte stability, 1% final DMSO, 2 μM substrate (t1/2^a); type: in vitro ADME; conditions: human, cryopreserved hepatocytes, TA with 1% final DMSO
Description: This assay was used to evaluate the metabolic stability of test articles (TA) following incubation in cryopreserved hepatocytes by monitoring parent drug disappearance via […]. The TA with 1% final DMSO concentration was incubated with 1 million hepatocytes/ml at 2 μM substrate in duplicate. The incubation was carried out at 37° C. with 5% CO2 and saturating humidity.

PI3Kδ = biological target: T1, PI3Kδ (Homo sapiens, UniProt O00329); assay: Enzymatic activity of PI3K isoforms, TR-FRET assay (PIP3 formation); type: biochemical
T1 construct: made in house
T1 sequence (O00329 whole entry, canonical isoform): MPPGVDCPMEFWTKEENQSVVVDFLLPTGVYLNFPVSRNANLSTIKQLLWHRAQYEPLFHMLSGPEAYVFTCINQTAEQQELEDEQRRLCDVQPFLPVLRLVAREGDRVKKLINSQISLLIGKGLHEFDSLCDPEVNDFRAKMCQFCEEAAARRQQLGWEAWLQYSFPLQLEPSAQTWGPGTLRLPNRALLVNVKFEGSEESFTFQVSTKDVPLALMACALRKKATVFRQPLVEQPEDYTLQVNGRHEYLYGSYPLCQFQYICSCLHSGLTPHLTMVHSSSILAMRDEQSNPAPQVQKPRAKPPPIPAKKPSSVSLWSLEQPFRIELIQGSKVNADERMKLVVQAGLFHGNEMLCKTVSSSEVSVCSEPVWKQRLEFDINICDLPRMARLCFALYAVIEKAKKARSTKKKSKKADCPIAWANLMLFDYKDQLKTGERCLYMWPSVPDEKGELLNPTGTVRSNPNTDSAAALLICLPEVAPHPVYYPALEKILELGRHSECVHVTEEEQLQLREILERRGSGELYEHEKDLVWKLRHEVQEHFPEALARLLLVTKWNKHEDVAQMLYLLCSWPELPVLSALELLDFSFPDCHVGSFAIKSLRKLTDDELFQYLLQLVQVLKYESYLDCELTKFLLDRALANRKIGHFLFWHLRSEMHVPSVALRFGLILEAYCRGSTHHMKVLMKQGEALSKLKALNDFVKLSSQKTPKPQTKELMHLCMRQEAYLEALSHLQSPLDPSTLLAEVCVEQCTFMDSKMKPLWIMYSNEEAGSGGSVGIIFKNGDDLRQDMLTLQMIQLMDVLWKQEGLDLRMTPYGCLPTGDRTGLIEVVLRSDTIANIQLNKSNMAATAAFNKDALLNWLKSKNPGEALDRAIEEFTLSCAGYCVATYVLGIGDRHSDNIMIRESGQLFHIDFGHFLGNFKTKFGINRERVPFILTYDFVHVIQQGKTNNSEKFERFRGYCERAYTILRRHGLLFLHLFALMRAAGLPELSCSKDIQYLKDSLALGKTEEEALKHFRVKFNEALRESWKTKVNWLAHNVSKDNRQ
T1 sequence (P27986 whole entry partner, canonical isoform): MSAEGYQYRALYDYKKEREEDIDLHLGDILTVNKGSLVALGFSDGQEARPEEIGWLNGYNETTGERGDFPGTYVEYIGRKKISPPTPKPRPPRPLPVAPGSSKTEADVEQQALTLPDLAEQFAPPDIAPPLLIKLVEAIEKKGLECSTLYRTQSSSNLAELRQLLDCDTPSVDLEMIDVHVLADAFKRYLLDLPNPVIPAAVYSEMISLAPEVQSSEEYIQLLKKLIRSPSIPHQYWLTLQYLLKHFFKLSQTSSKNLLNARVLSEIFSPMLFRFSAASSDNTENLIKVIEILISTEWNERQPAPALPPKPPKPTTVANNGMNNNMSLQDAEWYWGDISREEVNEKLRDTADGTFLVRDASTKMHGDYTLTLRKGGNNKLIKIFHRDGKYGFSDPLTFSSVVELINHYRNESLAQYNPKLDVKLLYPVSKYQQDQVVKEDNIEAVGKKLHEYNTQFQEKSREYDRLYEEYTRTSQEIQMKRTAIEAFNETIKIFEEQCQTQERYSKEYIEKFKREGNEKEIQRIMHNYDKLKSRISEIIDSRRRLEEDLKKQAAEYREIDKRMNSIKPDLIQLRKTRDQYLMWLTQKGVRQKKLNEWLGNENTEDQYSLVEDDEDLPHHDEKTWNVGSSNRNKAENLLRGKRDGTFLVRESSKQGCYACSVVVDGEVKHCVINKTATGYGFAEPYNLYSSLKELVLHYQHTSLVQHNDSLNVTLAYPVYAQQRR
How it was run: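 Recombinant heterodimeric class I PI3K; PIP3 product measured by TR-FRET competition with labelled PIP3 for Eu-GRP-1 PH domain. Reaction 30 min at 25 °C, stopped with 10 mM EDTA.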

[3] = Homo sapiens, basophils activated with anti-FcεRI mAb or fMLP, geometric mean
[4] = 1 μM substrate, samples at 0, 1, 3, 6 hours, read-out: human hepatocyte t½^b
[5] = 2 μM substrate, samples at 0, 1, 2, 4 hours, read-out: human hepatocyte t½^a
[6] = PI3Kδ, TR-FRET, 2×Km ATP, 10 μM PIP2, read-out: IC50
[7] = Homo sapiens, basophil activation
[8] = human hepatocytes, read-out: t1/2^b
[9] = human hepatocytes, read-out: t1/2^a

EC50 (basophils; [3])	half-life at 1 μM [1, 4]	half-life at 2 μM [2, 5]	IC50 (PI3Kδ; [6])	EC50 (basophils; basophils activated with anti-FcεRI mAb or fMLP, geometric mean)	Structure (SMILES)	EC50 (basophils; [7])	half-life at 1 μM [1, 8]	half-life at 2 μM [2, 9]	IC50 (PI3Kδ)
1 to 10 nM	360 to 600 min	> 600 min	1 to 10 nM		CC(Nc1nc(N)nc(N)c1C#N)c1nc2cccc(C(F)F)c2c(=O)n1-c1cc(F)cc(F)c1 (single isomer, unassigned) [Compound 52a]				
1 to 10 nM	> 600 min	> 600 min	10 to 50 nM		CCC(Nc1nc(N)nc(N)c1C#N)c1nc2ccccc2c(=O)n1-c1cc(F)cc(F)c1 (single isomer, unassigned) [Compound 36a]				
1 to 10 nM	180 to 360 min	> 600 min	1 to 10 nM		CC(Nc1nc(N)nc(N)c1C(N)=O)c1nc2cccc(Cl)c2c(=O)n1-c1cc(F)cc(F)c1 (single isomer, unassigned) [Compound 90a]				
< 1 nM	360 to 600 min	> 600 min	1 to 10 nM		CCC(Nc1nc(N)nc(N)c1C#N)c1nc2c(F)cccc2c(=O)n1-c1cc(F)cc(F)c1 (single isomer, unassigned) [Compound 17a]				
< 1 nM	180 to 360 min	> 600 min	< 1 nM		CC(Nc1nc(N)nc(N)c1C#N)c1nc2cccc(Cl)c2c(=O)n1-c1ccccc1 (single isomer, unassigned) [Compound 49a]	< 0.5 nM	> 240 min	> 600 min	
10 to 50 nM	60 to 180 min	> 600 min	10 to 50 nM		CC(Nc1nc(N)nc(N)c1C#N)c1nc2cccc(F)c2c(=O)n1-c1cc(F)cc(Cl)c1 (single isomer, unassigned) [Compound 44a]				
1 to 10 nM	180 to 360 min	> 600 min	< 1 nM		CC(Nc1nc(N)nc(N)c1C#N)c1nc2cccc(Cl)c2c(=O)n1-c1cccc(F)c1 (single isomer, unassigned) [Compound 108a]				
1 to 10 nM	60 to 180 min	> 600 min	< 1 nM		CC(Nc1nc(N)nc(N)c1C#N)c1nc2cccc(Cl)c2c(=O)n1-c1cccc(C(F)F)c1 (single isomer, unassigned) [Compound 106a]				
< 1 nM	180 to 360 min	> 600 min	1 to 10 nM		Cc1ccc(F)c2c(=O)n(-c3ccccc3)c(C(C)Nc3nc(N)nc(N)c3C#N)nc12 (single isomer, unassigned) [Compound 61a]				
1 to 10 nM	180 to 360 min	> 600 min	1 to 10 nM		CC(Nc1nc(N)nc(N)c1C#N)c1nc2cccc(F)c2c(=O)n1-c1cccc(C(F)F)c1 (single isomer, unassigned) [Compound 97a]				
1 to 10 nM	> 600 min	> 600 min	1 to 10 nM		CC(Nc1nc(N)nc(N)c1C#N)c1nc2c(C#N)cccc2c(=O)n1-c1ccccc1 (single isomer, unassigned) [Compound 122a]				
1 to 10 nM	60 to 180 min	> 600 min	1 to 10 nM		CC[C@H](Nc1nc(N)nc(N)c1C#N)c1nc2cccc(F)c2c(=O)n1-c1cc(F)cc(F)c1 [Compound 77a, (S)-2,4-diamino-6-((1-(3-(3,5-difluorophenyl)-5-fluoro-4-oxo-3,4-dihydroquinazolin-2-yl)propyl)amino)pyrimidine-5-carbonitrile]				
< 1 nM	60 to 180 min	360 to 600 min	< 1 nM		C[C@H](Nc1nc(N)nc(N)c1C#N)c1nc2cccc(Cl)c2c(=O)n1-c1cc(F)cc(F)c1 [Compound 1a, 2,4-diamino-6-((1-(5-chloro-3-(3,5-difluorophenyl)-4-oxo-3,4-dihydroquinazolin-2-yl)ethyl)amino)pyrimidine-5-carbonitrile]	< 0.5 nM	> 60 min	> 540 min	
< 1 nM		180 to 360 min	< 1 nM		Cc1cccc2nc(C(C)Nc3nc(N)nc(N)c3C#N)n(-c3cc(F)cc(F)c3)c(=O)c12 (single isomer, unassigned) [Compound 18a]				
10 to 50 nM		> 600 min	1 to 10 nM		CCC(Nc1nc(N)nc(N)c1C#N)c1nc2cccc(C(F)F)c2c(=O)n1-c1cc(F)cc(F)c1 (single isomer, unassigned) [Compound 53a]				
< 1 nM		180 to 360 min	1 to 10 nM		CC(Nc1nc(N)nc(N)c1C#N)c1nc2c(Cl)ccc(Cl)c2c(=O)n1-c1cc(F)cc(F)c1 (single isomer, unassigned) [Compound 74a]				

EC50 (basophils; [3])	half-life at 1 μM [1, 4]	half-life at 2 μM [2, 5]	IC50 (PI3Kδ; [6])	EC50 (basophils; basophils activated with anti-FcεRI mAb or fMLP, geometric mean)	Structure (SMILES)	EC50 (basophils; [7])	half-life at 1 μM [1, 8]	half-life at 2 μM [2, 9]	IC50 (PI3Kδ)
> 50 nM		> 600 min	10 to 50 nM		CC(Nc1nc(N)nc(N)c1C#N)c1nc2c(F)ccc(Cl)c2c(=O)n1-c1cc(F)cc(C#N)c1 (single isomer, unassigned) [Compound 48a]				
1 to 10 nM		180 to 360 min	1 to 10 nM		CCC(Nc1nc(N)nc(N)c1C#N)c1nc2cccc(Cl)c2c(=O)n1-c1cc(F)cc(C(F)F)c1 (single isomer, unassigned) [Compound 66a]				
< 1 nM		180 to 360 min	< 1 nM		CC(Nc1nc(N)nc(N)c1C#N)c1nc2c(F)ccc(Cl)c2c(=O)n1-c1cc(F)cc(F)c1 (single isomer, unassigned) [Compound 15a]				
< 1 nM		60 to 180 min	1 to 10 nM		COc1cc(F)cc(-n2c(C(C)Nc3nc(N)nc(N)c3C#N)nc3cccc(Cl)c3c2=O)c1 (single isomer, unassigned) [Compound 192a]				
> 50 nM		60 to 180 min	1 to 10 nM		CC(C)CC(Nc1nc(N)nc(N)c1C#N)c1nc2cccc(Cl)c2c(=O)n1-c1cc(F)cc(F)c1 (single isomer, unassigned) [Compound 163a]				
		360 to 600 min	1 to 10 nM	1 to 10 nM	Cc1ccc(F)cc1-n1c(C(C)Nc2nc(N)nc(N)c2C#N)nc2cccc(Cl)c2c1=O (single isomer, unassigned) [Compound 201a-2]				
1 to 10 nM		360 to 600 min	1 to 10 nM		Cc1ccc(F)c2nc(C(C)Nc3nc(N)nc(N)c3C#N)n(-c3cc(F)cc(C#N)c3)c(=O)c12 (single isomer, unassigned) [Compound 31a]				
1 to 10 nM		360 to 600 min	1 to 10 nM		Cc1ccc(F)c2c(=O)n(-c3cc(F)cc(F)c3)c(C(C)Nc3nc(N)nc(N)c3C#N)nc12 (single isomer, unassigned) [Compound 35a]				
> 50 nM		360 to 600 min	10 to 50 nM		Cc1ccc(F)c2c(=O)n(-c3cccc(C#N)c3)c(C(C)Nc3nc(N)nc(N)c3C#N)nc12 (single isomer, unassigned) [Compound 82a]				
1 to 10 nM		60 to 180 min	< 1 nM		Cc1ccc(Cl)c2c(=O)n(-c3cccc(Cl)c3)c(C(C)Nc3nc(N)nc(N)c3C#N)nc12 (single isomer, unassigned) [Compound 5a]				
1 to 10 nM		< 60 min	1 to 10 nM		CC(C)c1cccc(-n2c(C(C)Nc3nc(N)nc(N)c3C#N)nc3cccc(Cl)c3c2=O)c1 (single isomer, unassigned) [Compound 107a]				
1 to 10 nM		180 to 360 min	1 to 10 nM		CC(Nc1nc(N)nc(N)c1C#N)c1nc2cccc(Cl)c2c(=O)n1-c1cc(F)cc(Cl)c1 (single isomer, unassigned) [Compound 43a]				
1 to 10 nM		360 to 600 min	< 1 nM		CC(Nc1nc(N)nc(N)c1C#N)c1nc2cccc(Cl)c2c(=O)n1-c1cc(F)cc(C(F)F)c1 (single isomer, unassigned) [Compound 55a]				
< 1 nM		360 to 600 min	< 1 nM		CC(Nc1nc(N)nc(N)c1C#N)c1nc2c(Cl)ccc(Cl)c2c(=O)n1-c1ccccc1 (single isomer, unassigned) [Compound 50a]				
1 to 10 nM		360 to 600 min	< 1 nM		Cc1ccc(Cl)c2c(=O)n(-c3ccccc3)c(C(C)Nc3nc(N)nc(N)c3C#N)nc12 (single isomer, unassigned) [Compound 4a]				

Structure (SMILES)	EC50 (basophils; [3])	half-life at 1 μM [1, 4]	half-life at 2 μM [2, 5]	IC50 (PI3Kδ; [6])	EC50 (basophils; basophils activated with anti-FcεRI mAb or fMLP, geometric mean)	EC50 (basophils; [7])	half-life at 1 μM [1, 8]	half-life at 2 μM [2, 9]	IC50 (PI3Kδ)
C[C@H](Nc1ncnc(N)c1C#N)c1nc2cccc(Cl)c2c(=O)n1-c1cc(F)cc(F)c1 [Z, reference compound]	10 to 50 nM		60 to 180 min			> 10 nM	< 120 min	< 180 min	1 to 10 nM
C[C@H](Nc1ncnc2[nH]cnc12)c1nc2cccc(Cl)c2c(=O)n1-c1ccccc1 [X, reference compound]	1 to 10 nM		60 to 180 min			> 5 nM	< 120 min	< 60 min	
